Measured values published in patent US10464920B2, “Vicinal primary diamines associated with metal and/or free radical chelation motifs, and active against carbonyl and oxidative stress, and use thereof” (UNIVERSITE AMIENS PICARDIE JULES VERNE, priority 2015, dated 2019).

Tests used:
[1] = ORACFL test (Oxygen Radical Absorbance Capacity) using fluorescein/AAPH; format: physicochemical; conditions: compounds at 10 μM; for ORACFL: mean ± SEM of three independent experiments in triplicate
Description: The antioxidant properties of the compounds according to the invention were evaluated using a ORACFL test using fluorescein (J. Agric. Food Chem., 2004 52, 48-54; J. Agric. Food Chem., 2005, 53, 4290-4302). As such, peroxide radicals, generated in the presence of AAPH (2,2′-azobis(2-methylpropionamidine)dihydrochloride) at 37° C., react with this fluorescent sensor in order to give a non-fluorescent product. The protective effect of the test compounds can then be determined by following the decay curve of the fluorescence of the fluorescein over time and be measuring the area under the curve (AUC) of the sample in relation to that of a control corresponding to an absence of antioxidant.
The trolox (6-hydroxy-2,5,7,8-tetramethylchroman-2-carboxylic acid), a water-soluble analogue of vitamin E, is used as a standard for calculating the antioxidant capacity (ORACFL) of the compounds tested at 10 μM, expressed in […] of tested compound. This value is as such obtained using the straight-line calibration equation giving the area under the curve according to the various concentrations of trolox (Bioorg. Med. Chem., 2015, 23, 1135-1148) (FIG. 11).
A solution of fluorescein (FL) (12 nM; 150 μL) is introduced into a black 96-well plate (Dutscher, Brumath, France). The compounds to be tested (1-20 μM; 25 μL) or trolox (1-50 μM; 25 μL) dissolved in D-PBS are added into each well. After equilibration of the plate during an incubation at 37° C. for a minimum of 30 min, the radical reactions are initiated using a solution of AAPH prepared extemporaneously (30 mM; 25 μL). The fluorescence (λEx: 485 nm; λEm: 520 nm) is measured every 90 seconds for 60 cycles using a temperature-controlled Tecan Infinite® 200 PRO microplate reader (measurements taken in triplicates during three independent experiments).

[2] = test system: human fibroblasts (MRC-5); test: Cytotoxicity, cellular viability (CCK-8/WST-8) on MRC-5; format: cell-based
Description: The cellular viability is evaluated by a colorimetric method based on the detection of the conversion of a salt of the tetrazolium (WST-8) by the metabolically active cells (CCK-8 kit, Sigma, Lyons, France) (Molecules, 2014, 19(8), 12048-12064; J. Pharmacol. Toxicol. Methods., 2007, 56(1), 58-62). Living cells have mitochondrial dehydrogenases that reduce the WST-8 (2-(2-methoxy-4-nitrophenyl)-3-(4-nitrophenyl)-5-(2,4-disulfophenyl)-2H-tetrazolium), monosodium salt) to formazan of an orange colour, which dissolves directly in the culture medium in the presence of 1-Methoxy PMS (1-methoxy-5-methylphenazinium methyl sulphate). After an incubation for 1 h at 37° C., the absorbance of the formazan is measured at 450 nm. The absorbance is directly proportional to the number of living cells.
Briefly, the cells are inoculated in 96-well plates at a rate of 5.10^3 cells per well in 100 μL of the suitable medium until subconfluence. The cells are then washed with D-PBS, then treated with various concentrations (10 μM, 100 μM) of the products to be tested in triplicates for 24 and 48 h. A positive control is carried out with 10% of DMSO. The CCK-8 (10 μL) solution is then added to each well for an incubation for 1 h at 37° C. The measurement of the absorbance is taken at 450 nm using a Perkin Elmer 2103 Envision® microplate reader.
The viability of the cells is expressed as a % of the control (untreated cells) by the mean±standard deviation of triplicates forming a representative experiment or of three independent experiments conducted in triplicate.

[3] = Cu2+ chelating properties by UV/Visible light spectrophotometry (murexide); format: physicochemical; conditions: 0.02-2 mM compound, CuSO4 0.25 mM solution, Hexamine buffer pH 5, RT 10 min
Description: J. Mol. Sci., 2009, 10, 5485-5497; Molecules, 2012, 17, 13457-13472). […] A Hexamine buffer 0.01 M/KCl 0.01 M (qsp 200 mL) of which the pH is adjusted to 5 using a solution of HCl 1N is first of all prepared. Solutions of CuSO4.5H2O at 0.5 mM (20 mL) and 0.25 mM (100 mL) are then carried out in this buffer, with the first being used to obtain the calibration curve. An aqueous solution of murexide at 1 mM must also be prepared extemporaneously (10 mL) as well as a stock solution of the compounds to be tested at 4.2 mM in Hexamine buffer 0.01 M/KCl 0.01 M or in a buffer and MeOH 75/25 mixture (6.2 mL). Various concentrations of the compounds to be tested are distributed in Hexamine buffer 0.01M/KCl 0.01M (pH=5) (Table 5) or in a buffer and MeOH 75/25 mixture in tubes for hemolysis (Table 6). The solution of CuSO4.5H2O at 0.25 mM (1 mL) is then added and this is allowed to incubate at RT for 10 min. Finally, the aqueous solution of murexide at 1 mM (0.1 mL) is introduced and is again allowed to incubate at RT for 1 min. The absorbances are then measured at 485 nm ([…]) and 520 nm ([…]) by UV/Visible light spectrophotometry (V-650 JASCO spectrometer) (measurements taken in triplicates). […] After introduction of the aqueous solution of murexide at 1 mM (0.1 mL), this is allowed to incubate at RT for 1 min and the absorbances are finally measured at 485 nm ([…]) and 520 nm ([…]) by UV/Visible light spectrophotometry.

[4] = MRC-5, 10 μM, 24 h of treatment
[5] = MRC-5, 10 μM, 48 h of treatment
[6] = MRC-5, 100 μM, 24 h of treatment
[7] = MRC-5, 100 μM, 48 h of treatment

SMILES | antioxidant capacity (ORACFL), in words [1] | ORACFL [1] [μmol TE/μmol] | viability of the cells as a percentage of the untreated cells [2, 4] [%] | viability of the cells as a percentage of the untreated cells [2, 5] [%] | viability of the cells as a percentage of the untreated cells [2, 6] [%] | viability of the cells as a percentage of the untreated cells [2, 7] [%] | Cu^2+ chelating properties (complexation of the Cu^2+) [3]
NCC(N)CCC(=O)NCCCn1cccc(O)c1=O (stereo not drawn) [Compound 37c, 4,5-diamino-N-(3-(3-hydroxy-2-oxopyridin-1(2H)-yl)propyl)pentanamide] | most active | 1.03 ± 0.03 | 97 | 94 | 89 | 90 | –
NCC(N)CCCCNC(=O)CCn1cccc(O)c1=O (stereo not drawn) [Compound 37b, N-(5,6-diaminohexyl)-3-(3-hydroxy-2-oxopyridin-1(2H)-yl)propanamide] | – | 0.99 ± 0.09 | 113 | 103 | 113 | 101 | most active
NCC(N)CCCNC(=O)CCn1cccc(O)c1=O (stereo not drawn) [Compound 37a, N-(4,5-diaminopentyl)-3-(3-hydroxy-2-oxopyridin-1(2H)-yl)propanamide] | – | 0.58 ± 0.02 | 112 | 107 | 124 | 105 | –
COc1cc(/C=C/C(=O)N2CCN(C(=O)CCC(N)CN)CC2)ccc1O (stereo not drawn) [Compound 29a, (E)-4,5-diamino-1-(4-(3-(4-hydroxy-3-methoxyphenyl)acryloyl)piperazin-1-yl)pentan-1-one] | – | 2.05 ± 0.23 | 103 | 104 | 99 | 103 | poor results
NCC(N)CCCCNC(=O)c1cc(O)c(O)c(O)c1 (stereo not drawn) [Compound 30b, N-(5,6-diaminohexyl)-3,4,5-trihydroxybenzamide] | most active | 2.59 ± 0.35 | 98 | 92 | 101 | 100 | most active
